# Key:
# NTRK1 = biological target: T1, NTRK1 (Homo sapiens, UniProt P04629); assay: NanoBRET K192 assay (Promega); type: cell-based; details: HEK293 cells
# T1 construct: against 192 full-length protein kinases in human embryonic kidney 293 (HEK293) cells; host or cells: HEK293
# Description: NanoBRET Target Engagement K192 assay. HEK293 cells (ATCC) were cultured in DMEM (Gibco) + 10% FBS (Seradigm) and incubated in a humidified 37°C/5% CO2 incubator. The NanoBRET Target Engagement K192 Kinase Selectivity System (Promega) contains 192 unique transfection-ready NanoLuc/Kinase fusions, pre-diluted in either transfection carrier DNA or relevant cyclin DNA. These NanoLuc/Kinase fusion constructs were transfected into HEK293 cells using Fugene HD (Promega) according to the manufacturer’s protocol. Briefly, 10 µL of a 20 µg/mL DNA solution was added to white, TC-treated 96-well assay plates (Corning), followed by 30 µL of a diluted Fugene HD solution (20 µL Fugene/1 mL Opti-MEM). After transfection complex formation, HEK293 cells were resuspended at 3.3 × 105 c/mL in Opti-MEM + 1% FBS and added at a volume of 60 µL per well, to result in approximately 20000 cells/well. Cells were incubated in a humidified 37°C/5% CO2 incubator for 20 hours. Tracer K-10 (Promega) was prepared at a 100× concentration in DMSO (Sigma) and diluted to a working concentration of 10× in tracer dilution buffer (12.5 mM HEPES, 31.25% PEG400, pH 7.5) (Promega). Test compounds were prepared as concentrated stock solutions in DMSO and diluted in Opti-MEM to prepare 10× working stocks. Cells were equilibrated with test compounds and Tracer K-10 for 2 hours prior to BRET measurements. For target engagement analysis, Tracer K-10 was added to cells at one of 4 […]
# manufacturer’s protocol. To measure BRET, NanoBRET NanoGlo Substrate and Extracellular NanoLuc Inhibitor (Promega) were added according to the manufacturer’s protocol, and filtered luminescence was measured on a GloMax Discover luminometer equipped with 450 nm BP filter (donor) and 600 nm LP filter (acceptor), using 0.5 s integration time. Milli-BRET units are calculated by multiplying the raw BRET units by 1000.
# For Fractional Occupancy determination, the following equation was used:
# % Occupancy = [1-(X-Z)/(Y-Z)]×100
# Where X = BRET in the presence of the test compound and Tracer K10, Y = BRET in the presence of Tracer K10 only, and Z = Full occupancy, or BRET in the absence of the test compound and […]
# Tracer K10. […]
# [1] = Deaths and body weight during treatment; type: in vivo, mice
# Description: using individual calibration curves established with the corresponding tissue homogenates from untreated mice. The calibration curve was regressed with a weight of 1/x2 with high linearity (r2 […]
# Spatial distribution of CDD-2807 in testis. The testis from the mice treated with CDD-2807 were attached to the Leica CM3050 S cryostat (Leica Biosystems, Deer Park, IL) with water and then sectioned at the thickness of 10 μm at −20°C. The sections were attached to electrically conductive glass slides coated with indium tin oxide ([…], 70-100 ohms, Delta Technologies, Loveland, CO). Tissue sections were sprayed with a matrix solution containing 35 mg/mL 2,5-dihydroxybenzoic acid (DHB, Sigma, St. Louis, MO) in 70% aqueous CH3OH with 0.1% trifluoroacetic acid using an HTX TM-Sprayer (HTX Technologies LLC, Carrboro, NC). Sprayer nozzle temperature was set at 70°C, tray temperature at 40°C, nozzle velocity at 1200 mm/min, track spacing at 2 mm, drying time for 10 sec and nitrogen gas pressure at 10 psi. The data were collected on the Bruker TimsTOF MS MALDI-2 instrument with the resolution at 40 µm/pixel (mass range 100−1000 Da under the positive mode) using DHB ion as the on-line calibrant. The data was analyzed, and the images were plotted by SciLs Lab software (Bruker, Billerica, MA). […]
# Alanine transaminase (ALT) and aspartate transaminase (AST) assays. […] ALT and AST levels were measured in duplicates using assay kits (StanBio, Boerne, TX) according to the manufacturer's instructions. ALT and AST levels were determined using the rate of NADH oxidation, which was quantified by measuring absorbance at 340 nm using a CLARIOstar plate reader (BMG Labtech in Cary, NC). ALT and AST were tested for significance at multiple collection time points, tests for significance included a test for normality (Shapiro-Wilk test) and following the test for normality were then analyzed using an unpaired t-test with significance determined by an alpha of P = 0.05. […]
# Fertility analysis. […] Weights were measured daily prior to drug administration and monitored throughout the entirety of the injection period. […]
# CLK4 = CLK4 (Homo sapiens, UniProt Q9HAZ1); assay: LanthaScreen binding assay (ThermoFisher SelectScreen); parameters: purchased SelectScreen Services (ThermoFisher)
# Excerpt: In vitro biochemical assays. Several small molecule assays were outsourced to SelectScreen Services (ThermoFisher) for STK33 and for off-target kinases (data sets are available on demand).
# These assays are LanthaScreen (binding assay) and Z’-LYTE (activity assay). Dose-responses were done with at least 5 different concentrations in duplicates, and parameters were optimized by calculations described below and provided with standard errors.
# Calculation of Kd values for kinase inhibitors that bind to the ATP pocket of a kinase from LanthaScreen binding data. DynaFit (71) was used to fit complex equilibria where a tracer is displaced by a dilution series of a kinase inhibitor. This method relies on the concentration of inhibitor, as well as the concentration of kinase and tracer, and Kd of the tracer. The latter three parameters are tabulated by ThermoFisher for each kinase in the LanthaScreen assay panel. […]
# T1 sequence (P04629 33-796): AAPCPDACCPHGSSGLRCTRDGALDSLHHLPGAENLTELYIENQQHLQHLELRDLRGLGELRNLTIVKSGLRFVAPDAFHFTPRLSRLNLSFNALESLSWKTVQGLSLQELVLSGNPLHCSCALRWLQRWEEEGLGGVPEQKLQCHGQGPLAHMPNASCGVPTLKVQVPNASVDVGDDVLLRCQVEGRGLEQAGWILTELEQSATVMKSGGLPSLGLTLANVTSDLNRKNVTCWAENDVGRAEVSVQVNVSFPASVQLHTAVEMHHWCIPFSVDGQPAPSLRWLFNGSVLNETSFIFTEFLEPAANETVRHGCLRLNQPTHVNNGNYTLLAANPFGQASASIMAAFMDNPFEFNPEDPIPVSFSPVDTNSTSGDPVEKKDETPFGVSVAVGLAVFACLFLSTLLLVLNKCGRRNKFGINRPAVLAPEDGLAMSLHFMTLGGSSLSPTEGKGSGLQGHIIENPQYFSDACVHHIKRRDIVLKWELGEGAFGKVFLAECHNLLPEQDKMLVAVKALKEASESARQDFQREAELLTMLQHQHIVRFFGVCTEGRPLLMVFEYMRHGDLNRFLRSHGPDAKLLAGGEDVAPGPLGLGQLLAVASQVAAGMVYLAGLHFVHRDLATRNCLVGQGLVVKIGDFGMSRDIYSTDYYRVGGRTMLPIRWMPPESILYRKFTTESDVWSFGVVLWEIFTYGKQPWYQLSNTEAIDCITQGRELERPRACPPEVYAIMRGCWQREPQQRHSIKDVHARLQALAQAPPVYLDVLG
# CLK4, sequence (Q9HAZ1 whole entry): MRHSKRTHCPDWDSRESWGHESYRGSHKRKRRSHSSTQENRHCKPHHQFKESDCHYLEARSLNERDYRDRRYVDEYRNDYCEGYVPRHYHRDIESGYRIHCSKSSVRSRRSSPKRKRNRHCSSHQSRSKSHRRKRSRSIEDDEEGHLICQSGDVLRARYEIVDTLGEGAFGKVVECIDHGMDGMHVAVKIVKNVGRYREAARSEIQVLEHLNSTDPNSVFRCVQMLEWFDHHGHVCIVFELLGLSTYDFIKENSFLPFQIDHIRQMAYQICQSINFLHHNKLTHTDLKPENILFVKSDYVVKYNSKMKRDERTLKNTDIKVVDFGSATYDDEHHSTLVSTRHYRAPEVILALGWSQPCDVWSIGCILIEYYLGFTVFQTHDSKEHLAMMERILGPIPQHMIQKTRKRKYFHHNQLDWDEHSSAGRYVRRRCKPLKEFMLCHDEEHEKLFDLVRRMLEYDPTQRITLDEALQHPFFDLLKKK
smiles,measurement,setting,value
O=C(c1ccc2[nH]nc(C#Cc3ccccc3-c3ccccc3)c2c1)N1CC2(CCCNC2)C1 [CDD-2807],receptor occupancy at 1 µM,NTRK1,31.8 ± 1%
same,mouse body weights,[1]; 50 mg/kg/day for 7 days (Protocol 3),27.05 ± 0.79 g
same,deaths during the period of treatment,[1]; protocols 1 and 2,no deaths
same,weight changes during the period of treatment,[1]; protocols 1 and 2,no significant weight changes
same,Kd,CLK4,0.9 nM
